Data reported in patent US20180125032A1, “Automated method and system for introducing Liquid iodine into drinking water” (priority 2010, published 2018).

Experiments:
[1] = Loss of I2 from water at room temperature (hydrolysis / out gassing); format: physicochemical
Protocol: The only significant anti-infective iodine species in water is molecular iodine (I2). In the pH range of 6.0<->7.0, I2 is favored when I2 is added directly into water. […] If the pH of the water is kept at about pH 6.0, I2 is favored, but if the pH is above 7.0, I2 will hydrolyze (3) to I^− and HOI and I3^− (7) can form and accumulate in the water. I have determined experimentally that I2 is lost from the water at room temperature at a linear rate of about 0.3 mcg/mL/hour when the pH of the water was adjusted to ˜pH5-5.5 with acetic acid to prolong survival of I2 in water. Thus after 24 hours >90% of the I2 is lost either to hydrolysis
or volatile I2 via out gassing. At higher pH, the iodine will dissipate faster or be converted to HOI. At neutral pH=7 the I2 loss is ˜0.5 mcg/mL/hr so that >90% is gone within 4 hours.

[2] = Pets drinking iodinated water, observation for ill effects; format: in vivo, dogs and cats

## II [I2, molecular iodine]
[1]; after 24 hours, ~pH5-5.5, room temperature
  I2 lost (hydrolysis or out gassing): > 90%
[1]; neutral pH=7
  I2 loss rate: ~0.5 µg/mL/h
[1]; room temperature, water adjusted to ~pH5-5.5 with acetic acid
  rate of I2 loss from the water (linear): about 0.3 mcg/mL/hour
[1]; within 4 hours, neutral pH=7
  I2 gone: > 90%
[2]; dogs and cats followed for 3 weeks, 1-5 mcg/mL in drinking water
  ill effects: no ill effects were noted
[2]; two 35 kg dogs and two 4 kg cats, drinking water with average about 5 mcg/mL I2, followed for 4 days
  changes in pet behavior, food consumption or excretion: no obvious changes in pet behavior, food consumption or excretion
